# Strand notation (5' to 3'): a small letter for the sugar, then the base; units joined by * are phosphorothioate-linked, units joined directly phosphodiester-linked; [ ] holds rarer units or linkages, { } end groups; capitals alone tell only the bases. e = 2'-O-(2-methoxyethyl) (MOE); k = constrained ethyl (cEt); [5mC] = 5-methylcytosine; d = 2'-deoxy (DNA)
# Key:
# human PKK mRNA [1] = assay: Antisense inhibition of human PKK mRNA in HepaRG cells, 1,000 nM, MOE/deoxy/cEt oligonucleotides (Example 3); assay type: cell-based; conditions: HepaRG cells, electroporation with 1,000 nM antisense oligonucleotide, approximately 24 hours, primer probe set RTS3454, relative to untreated control cells
# Outline: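 HepaRG cells at 20,000 per well electroporated with 1,000 nM 16-mer MOE/cEt/deoxy gapmers (phosphorothioate, 5-methylcytosine). After about 24 h, PKK mRNA measured by qRT-PCR with primer probe set RTS3454, normalized to RIBOGREEN total RNA. Reported as percent inhibition versus untreated cells.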
# human PKK mRNA [2] = assay: Dose-dependent antisense inhibition of human PKK in HepaRG cells, 0.11-3.00 uM (Example 6); assay type: cell-based; conditions: electroporation, approx. 16 hours, relative to untreated control cells
# Outline: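 HepaRG cells were electroporated with antisense oligonucleotide at 0.11, 0.33, 1.00 or 3.00 μM. After about 16 h, PKK mRNA was quantified by qRT-PCR with primer probe set RTS3454 and normalized to total RNA by RIBOGREEN. IC50 was derived from the dose series.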
# human PKK mRNA [3] = assay: Human PKK mRNA in liver of human KLKB1 transgenic mice (Example 7); assay type: in vivo; conditions: twice a week for 3 weeks
# Protocol: (§1) Transgenic mice containing a 37,390 base pair fragment of the human KLKB1 gene sequence (chromosome 4: position 187148672-187179625, accession no: NC_000004.11) were treated with ISIS antisense oligonucleotides selected from studies described above, which were evaluated for efficacy in this model.
# (§2) Groups of transgenic mice were injected subcutaneously twice a week for 3 weeks with 2.5 mg/kg/week, 5.0 mg/kg/week, 10 mg/kg/week or 20 mg/kg/week of ISIS 546232, ISIS 546251, ISIS 546254, ISIS 546343, ISIS 546828, ISIS 547455, ISIS 547457, ISIS 547927, and ISIS 548048. One group of transgenic mice was injected subcutaneously twice a week for 3 weeks with PBS. Mice were euthanized 48 hours after the last dose, and organs and plasma were harvested for further analysis.
# To evaluate the effect of ISIS oligonucleotides on target reduction, RNA was extracted from liver tissue for real-time PCR analysis of human PKK. Results are presented as percent inhibition of PKK mRNA, relative to PBS control.
# PKK protein [4] = assay: Plasma PKK protein levels in human KLKB1 transgenic mice (Example 7); assay type: in vivo; conditions: plasma, twice a week for 3 weeks
# Protocol: as §1, §2
# Plasma PKK protein levels were evaluated in all groups. Results are presented as percent inhibition of PKK protein, relative to PBS control.
# PKK mRNA = PKK mRNA in cynomolgus monkey liver (Example 8); assay type: in vivo; conditions: 40 mg/kg s.c., loading then weekly to week 13; day 87 or 88, 48 h after final dose
# Protocol: Cynomolgus monkeys were treated with ISIS antisense oligonucleotides selected from studies described above. Antisense oligonucleotide efficacy and tolerability were evaluated. The human antisense oligonucleotides tested are cross-reactive with the rhesus genomic sequence (GENBANK Accession No. NW_001118167.1 truncated from nucleotides 2358000 to 2391000 and designated herein as SEQ ID NO: 18).
# On day 87 or 88, 48 hours after the final dose, RNA was extracted from liver tissue for real-time PCR analysis of PKK using primer probe set RTS3455 (forward sequence […], designated herein as SEQ ID NO: 23; reverse sequence […], designated herein as SEQ ID NO: 24; probe sequence […], designated herein as SEQ ID NO: 25). The results were normalized to the housekeeping gene, Cyclophilin. Results are presented as percent inhibition of PKK mRNA, relative to PBS control.
# PKK protein [5] = assay: PKK protein in cynomolgus monkey plasma by ELISA (Example 8); assay type: in vivo; conditions: 40 mg/kg sc
# Protocol: Approximately 0.9 mL of blood was collected each time from all available animals at pre-dose, day 17, day 31, day 45, day 59, and day 73, and placed in tubes containing 3.2% sodium citrate. The tubes were centrifuged (3000 rpm for 10 min at room temperature) to obtain plasma. PKK protein levels were measured in the plasma by ELISA. The results are presented in Table 52, expressed as percentage inhibition compared to the PBS control levels.
# [6] = cynomolgus monkey, in vivo, sc, 40 mg/kg
# [7] = cynomolgus monkey, in vivo, sc, 40 mg/kg; remark: listed apart in the source
# [8] = cynomolgus monkey, in vivo, sc, 40 mg/kg; remark: listed apart in the source
# [9] = cynomolgus monkey, in vivo, sc, 40 mg/kg; remark: listed apart in the source
# Protocol: (§3) Prior to the study, the monkeys were kept in quarantine for a 30-day period, during which the animals were observed daily for general health. The monkeys were 2-4 years old and weighed between 2 and 4 kg. Ten groups of four randomly assigned male cynomolgus monkeys each were injected subcutaneously with ISIS oligonucleotide or PBS. PBS solution or ISIS oligonucleotides at a dose of 40 mg/kg were administered initially with a loading regimen consisting of four doses on the first week of the study (days 1, 3, 5, and 7), followed by a maintenance regimen consisting of once weekly administration starting on Day 14 (weeks 2 to 13). Subcutaneous injections were performed in clock-wise rotations at 4 sites on the back; one site per dose. The injection sites were delineated by tattoo, while sedated using ketamine, and were separated by a minimum of 3 cm.
# Kidney function was also assessed by urinalysis. Fresh urine from all animals was collected using a clean cage pan on wet ice. Food was removed overnight the day before fresh urine collection was done but water was supplied. The total protein and creatinine levels were measured using a Toshiba 120FR NEO automated chemistry analyzer (Toshiba Co., Japan) and the protein to creatinine ratio was calculated.
# [10] = cynomolgus monkey, in vivo, sc, 40 mg/kg; remark: listed apart in the source
# Protocol: as §3
# To evaluate any inflammatory effect of ISIS oligonucleotides in cynomolgus monkeys, the monkeys were fasted overnight. Approximately, 1.5 mL of blood samples were collected from all the study groups. Blood was collected in tubes without anticoagulant for serum separation. The tubes were kept at room temperature for a minimum of 90 min and then centrifuged at 3,000 rpm for 10 min. C-reactive protein (CRP), which is synthesized in the liver and which serves as a marker of inflammation, was measured using a Toshiba 120FR NEO chemistry analyzer (Toshiba Co., Japan). Complement C3 was also measured similarly, and the data is presented as a percentage of baseline values.
# human PKK mRNA [11] = assay: Antisense inhibition of human PKK mRNA in HepaRG cells, 5,000 nM (Example 2); assay type: cell-based; conditions: Table 7; HepaRG cells, electroporation with 5,000 nM antisense oligonucleotide, approx. 24 hours; PKK mRNA by RT-PCR (RTS3454), relative to untreated control cells
# Outline: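 Percent inhibition of PKK mRNA is reported relative to untreated cells, after adjustment for total RNA by RIBOGREEN. Gapmers of 16–20 nucleosides with 2′-MOE wings were delivered at 5,000 nM by electroporation into HepaRG cells and left for roughly 24 hours before RNA isolation.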
# human PKK mRNA [12] = assay: Dose-dependent antisense inhibition of human PKK in HepaRG cells, 0.19-5.00 uM (Example 5); assay type: cell-based; conditions: HepaRG cells
# Outline: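 HepaRG cells (20,000/well) were electroporated with antisense oligonucleotide at 0.19, 0.56, 1.67 and 5.00 μM and treated for about 16 hours. PKK mRNA was quantified by qRT-PCR with primer probe set RTS3454, normalised to RIBOGREEN total RNA, and IC50 was derived per oligonucleotide.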
Substance,"percent inhibition of PKK mRNA, 0.11 μM (human PKK mRNA [2]) [%]","percent inhibition of PKK mRNA, 0.33 μM (human PKK mRNA [2]) [%]","percent inhibition of PKK mRNA, 1.00 μM (human PKK mRNA [2]) [%]","percent inhibition of PKK mRNA, 3.00 μM (human PKK mRNA [2]) [%]",% inhibition of PKK mRNA in the transgenic mice liver relative to the PBS control (human PKK mRNA [3]; 2.5 mg/kg/week sc) [%],% inhibition of PKK mRNA in the transgenic mice liver relative to the PBS control (human PKK mRNA [3]; 5 mg/kg/week sc) [%],% inhibition of PKK mRNA in the transgenic mice liver relative to the PBS control (human PKK mRNA [3]; 10 mg/kg/week sc) [%],% inhibition of PKK mRNA in the transgenic mice liver relative to the PBS control (human PKK mRNA [3]; 20 mg/kg/week sc) [%],% inhibition of PKK protein levels in the transgenic mice relative to the PBS control (PKK protein [4]; 2.5 mg/kg/week sc) [%],% inhibition of PKK protein levels in the transgenic mice relative to the PBS control (PKK protein [4]; 5 mg/kg/week sc) [%],% inhibition of PKK protein levels in the transgenic mice relative to the PBS control (PKK protein [4]; 20 mg/kg/week sc) [%],% inhibition of PKK mRNA in the cynomolgus monkey liver relative to the PBS control (PKK mRNA) [%],% inhibition of PKK protein levels in the transgenic mice relative to the PBS control (PKK protein [4]; 10 mg/kg/week sc) [%],PKK protein level reduction (%) in plasma relative to control levels (PKK protein [5]; Day 17) [%],PKK protein level reduction (%) in plasma relative to control levels (PKK protein [5]; Day 31) [%],PKK protein level reduction (%) in plasma relative to control levels (PKK protein [5]; Day 45) [%],PKK protein level reduction (%) in plasma relative to control levels (PKK protein [5]; Day 59) [%],PKK protein level reduction (%) in plasma relative to control levels (PKK protein [5]; Day 73) [%],ALT [6] [IU/L],AST [6] [IU/L],further results
547927 (eA*eT*kG*dG*dT*d[5mC]*d[5mC]*dG*dA*d[5mC]*dA*d[5mC]*dA*k[5mC]*kA*eA) [compound 547927],56,64,92,88,35,52,93,71,25,21,80,54,–,–,–,–,–,–,–,–,% inhibition (human PKK mRNA [1]; experiment of Table 23): 79%
548048 (e[5mC]*eG*kA*dT*dA*dT*d[5mC]*dA*dT*dG*dA*dT*dT*k[5mC]*k[5mC]*e[5mC]) [compound 548048],49,66,86,92,7,77,72,80,23,70,98,95,89,–,–,–,–,–,–,–,% inhibition (human PKK mRNA [1]; experiment of Table 24): 84%
"ISIS 547927: antisense oligonucleotide targeting human PKK; sequence in a table not shown (ATGGTCCGACACACAA; deoxy, MOE and cEt modifications, further chemistry not given here)",–,–,–,–,–,–,–,–,–,–,–,–,–,8,0,15,10,18,61,59,Albumin [6]: 4.2 g/dL; HCT [7]: 41%; Hemoglobin [7]: 12.5 g/dL; Platelets [7]: 461000 µL⁻¹; RBC [7]: 5.2e+06 µL⁻¹; WBC [7]: 45000 µL⁻¹; Plasma BUN [8]: 22.3 mg/dL; Plasma Creatinine [8]: 1.0 mg/dL; Urine protein/creatinine ratio [9]: 0.04; C3 (% of baseline) [10]: 73 % of baseline; CRP [10]: 0.2 mg/dL
"ISIS 546828: gapmer targeting human PKK, selected from earlier screens; sequence in a table not shown (ACAGTATCACTGTACTAGTT; gapmer, wing chemistry not given here)",–,–,–,–,–,–,–,–,–,–,–,–,–,0,8,23,39,39,67,75,Albumin [6]: 3.7 g/dL; HCT [7]: 43%; Hemoglobin [7]: 12.9 g/dL; Platelets [7]: 408000 µL⁻¹; RBC [7]: 6e+06 µL⁻¹; WBC [7]: 11000 µL⁻¹; Plasma BUN [8]: 24.7 mg/dL; Plasma Creatinine [8]: 0.9 mg/dL; Urine protein/creatinine ratio [9]: 0.03; C3 (% of baseline) [10]: 56 % of baseline; CRP [10]: 0.6 mg/dL
546251 (eG*eG*e[5mC]*eA*eA*dA*d[5mC]*dA*dT*dT*d[5mC]*dA*d[5mC]*dT*d[5mC]*e[5mC]*eT*eT*eT*eA) [compound 546251],–,–,–,–,13,51,66,79,22,30,69,90,52,–,–,–,–,–,–,–,"% inhibition (human PKK mRNA [11]): 92%; percent inhibition of PKK at 0.19 μM (human PKK mRNA [12]; 0.19 μM, electroporation, approximately 16 hours, Table 36): 31%; percent inhibition of PKK at 0.56 μM (human PKK mRNA [12]; 0.56 μM, electroporation, approximately 16 hours, Table 36): 60%; percent inhibition of PKK at 1.67 μM (human PKK mRNA [12]; 1.67 μM, electroporation, approximately 16 hours, Table 36): 99%; percent inhibition of PKK at 5.00 μM (human PKK mRNA [12]; 5.00 μM, electroporation, approximately 16 hours, Table 36): 89%; IC50 (human PKK mRNA [12]; 4 point dose response, Table 36): 0.5 µM; percent inhibition of PKK mRNA, 0.19 μM (human PKK mRNA [12]; 0.19 μM antisense oligonucleotide): 19%; percent inhibition of PKK mRNA, 0.56 μM (human PKK mRNA [12]; 0.56 μM antisense oligonucleotide): 45%; percent inhibition of PKK mRNA, 1.67 μM (human PKK mRNA [12]; 1.67 μM antisense oligonucleotide): 91%; percent inhibition of PKK mRNA, 5.00 μM (human PKK mRNA [12]; 5.00 μM antisense oligonucleotide): 97%; IC50 (human PKK mRNA [12]; 0.19-5.00 μM): 0.6 µM"

# — patent publication US11840686B2, “Modulation of prekallikrein (PKK) expression” (Ionis Pharmaceuticals, Inc., priority 2013, dated 2023)
